From PMC5609913, “Structure based design, synthesis and activity studies of small hybrid molecules as HDAC and G9a dual inhibitors” (Oncotarget, 2017)
Where two headings read alike, the source gives them in different places.

Tests used:
MDA-MB-231 cells = experiment: Cell anti-proliferation / toxicity assay (CCK-8), MDA-MB-231; assay type: cell-based; details: Homo sapiens, MDA-MB-231, 72 h, CCK-8, read-out: EC50 MDA-MB-231
Method: Initial tests designed around assessing whether a synergistic effect would be observed in real when a combination of G9a inhibitor and HDAC inhibitor used in conjunction.
Cell anti-proliferation assays were performed to determine the toxicity of these inhibitors. Several cell lines (MDA-MB-231, MCF-7 and A549) were incubated and then treated with varying concentrations of the inhibitors for 72 h, respectively. […] These compounds were further evaluated against the control cell line HEK293 to test their toxicity with a non-cancerous cell line.
A549, MDA-MB-231, MCF-7 and HEK293 cells were seeded at 8000-10000 cells (100 μl) in white 96-well plates and pre-incubate the plate for 24 h under standard cell culture conditions, respectively. And then the cells were exposed to the different inhibitors with various concentrations for 72 h. Finally, 10 μl of CCK-8 kit solution was added to each well and incubated for 3-4 hours under standard cell culture conditions, and the 96 well plates were measured the absorbance at 450 nm using Perkin–Elmer Wallac Victor ^3V 1420 multi label plate reader (Perkin–Elmer, Wellesley, USA). EC50s were calculated using GraphPad Prizm statistical package with sigmoidal variable slope dose response curve fit.

HDAC [1] = experiment: Homogeneous cellular histone deacetylase assay, K562; assay type: cell-based, human
Method: (§1) The enzymatic activity of HDAC was measured in intact cells using the homogeneous cellular assay method. A cell-permeable peptide Boc-K(Ac)-AMC used as the HDAC substrate, after deacetylation it is cleaved by trypsin to release the fluorescent 7-amino-4-methylcoumarin (AMC) and further quantified.
(§2) The manual assay was developed by Thomas's group. […] After 24 h, 9 μl inhibitors with different concentration were added to the HeLa cells and incubation was continued for 3 h under cell culture conditions. After this treatment period, 10 μl of a 2 mM stock solution of the substrate Boc-K(Ac)-AMC was added into the 96 well plates with Hela cells and inhibitors. […] A549 and K562 cell lines used the same method, respectively. IC50s were calculated using GraphPad Prizm statistical package with sigmoidal variable slope dose response curve fit.

G9a = molecular target: T1, G9a (Homo sapiens, UniProt Q96KQ7); experiment: H3K9Me2 cell immunofluorescence In-Cell Western (ICW) assay in MDA-MB-231; assay type: cell-based; details: MDA-MB-231 cell line, 48 h exposure
T1 construct: endogenous in cells; host or cells: MDA-MB-231
T1 sequence (Q96KQ7 1-1210): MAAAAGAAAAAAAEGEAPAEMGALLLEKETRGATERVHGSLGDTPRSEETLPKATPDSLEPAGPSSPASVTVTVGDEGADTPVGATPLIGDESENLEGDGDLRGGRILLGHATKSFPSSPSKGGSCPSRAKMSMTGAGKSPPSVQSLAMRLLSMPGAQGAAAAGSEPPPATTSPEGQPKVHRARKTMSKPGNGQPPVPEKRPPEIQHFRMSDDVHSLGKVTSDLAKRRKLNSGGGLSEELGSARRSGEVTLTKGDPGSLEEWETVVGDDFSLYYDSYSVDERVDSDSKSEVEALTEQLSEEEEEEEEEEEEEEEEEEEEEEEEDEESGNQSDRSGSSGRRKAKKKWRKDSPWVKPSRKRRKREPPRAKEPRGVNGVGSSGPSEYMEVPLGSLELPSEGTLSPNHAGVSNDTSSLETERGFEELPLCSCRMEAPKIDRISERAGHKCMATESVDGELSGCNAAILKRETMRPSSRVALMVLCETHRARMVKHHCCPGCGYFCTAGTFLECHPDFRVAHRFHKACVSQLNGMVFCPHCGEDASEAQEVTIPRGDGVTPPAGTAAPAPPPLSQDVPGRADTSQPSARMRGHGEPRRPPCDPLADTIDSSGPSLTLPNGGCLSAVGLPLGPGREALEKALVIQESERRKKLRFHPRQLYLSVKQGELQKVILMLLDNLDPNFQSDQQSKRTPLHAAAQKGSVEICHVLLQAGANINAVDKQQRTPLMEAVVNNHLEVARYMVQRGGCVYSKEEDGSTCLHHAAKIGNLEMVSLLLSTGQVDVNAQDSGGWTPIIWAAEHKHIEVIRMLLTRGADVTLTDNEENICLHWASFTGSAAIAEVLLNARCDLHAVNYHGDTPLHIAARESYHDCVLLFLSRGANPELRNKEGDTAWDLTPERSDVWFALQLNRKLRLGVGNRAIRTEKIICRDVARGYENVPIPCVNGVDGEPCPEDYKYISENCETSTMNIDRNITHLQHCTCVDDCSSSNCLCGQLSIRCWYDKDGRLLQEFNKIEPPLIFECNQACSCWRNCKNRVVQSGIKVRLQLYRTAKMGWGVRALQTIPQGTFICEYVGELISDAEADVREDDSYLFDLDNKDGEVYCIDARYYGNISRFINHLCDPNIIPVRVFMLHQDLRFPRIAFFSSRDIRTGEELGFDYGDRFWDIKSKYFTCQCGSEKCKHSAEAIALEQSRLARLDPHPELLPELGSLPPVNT
Method: After the incubation, the media was removed and 100 μl fixation and permeabilization solution (2% formaldehyde in PBS) for fixation was added for 30 min. And then use 200 μl 0.1% Triton X100 in PBS washing solution to wash (allow wash to shake on a plate shaker for 5 min). After five washes, cells were blocked for 1 h with 150 μl blocking buffer to each well (1% BSA in PBS) (allow blocking at room temperature with moderate shaking on a plate shaker). After 1 h, remove the blocking buffer from the blocking step and add primary antibody in blocking buffer to cover the bottom of each well. […] The plates were read on an Odyssey CLX (LiCor) scanner at both 800 nm (H3K9me2 signal) and 700 nm (cell tag 700 stain signal) channels. IC50s were calculated using GraphPad Prizm statistical package with sigmoidal variable slope dose response curve fit.

HDAC [2] = experiment: Homogeneous cellular histone deacetylase assay, A549; assay type: cell-based, human; details: Supplementary Table 2; NA = not active up to highest concentration tested (100 μM); >100 = IC50 not reached at 100 μM
Method: as §1, §2

MCF-7 cells = experiment: Cell anti-proliferation / toxicity assay (CCK-8), MCF-7; assay type: cell-based; details: Homo sapiens, MCF7, 72 h, CCK-8, read-out: EC50 MCF-7
Method: Cell anti-proliferation assays were performed to determine the toxicity of these inhibitors. […] These compounds were further evaluated against the control cell line HEK293 to test their toxicity with a non-cancerous cell line.
And then the cells were exposed to the different inhibitors with various concentrations for 72 h. […] EC50s were calculated using GraphPad Prizm statistical package with sigmoidal variable slope dose response curve fit.

HDAC [3] = experiment: Homogeneous cellular histone deacetylase assay, Hela; assay type: cell-based, human
Method: as §1, §2

[4] = Supplementary Table 4, >100 = not reached at 100 μM
[5] = Supplementary Table 2, NA = not active up to highest concentration tested (100 μM), >100 = IC50 not reached at 100 μM, read-out: IC50-HDAC K562
[6] = Supplementary Table 2, NA = not active up to highest concentration tested (100 μM), >100 = IC50 not reached at 100 μM, read-out: IC50-HDAC Hela
[7] = Table 6, mean ± SD of triplicates
[8] = Table 3, Boc-K(Ac)-AMC substrate, intact K562 cells, read-out: K562 IC50
[9] = Table 3, Boc-K(Ac)-AMC substrate, intact Hela cells, read-out: Hela IC50

SMILES	EC50 (MDA-MB-231 cells; [4]) [µM]	IC50 (HDAC [1]; [5]) [µM]	IC50 (G9a) [µM]	IC50 (HDAC [2]) [µM]	EC50 (MCF-7 cells; [4]) [µM]	IC50 (HDAC [3]; [6]) [µM]	EC50 (MDA-MB-231 cells; [7]) [µM]	IC50 (HDAC [1]; [8]) [µM]	EC50 (MCF-7 cells; [7]) [µM]	IC50 (HDAC [3]; [9]) [µM]
COc1ccc2c(NC3CCN(C)CC3)nc(NCCNC(=O)CCCC(=O)NO)nc2c1 [Compound 16a, N1-hydroxy-N5-(2-((7-methoxy-4-((1-methylpiperidin-4-yl)amino)quinazolin-2-yl)amino)ethyl)glutaramide]	90.5	> 100	45.7 ± 1.76	> 100	> 100	> 100				
COc1ccc2c(NC3CCN(Cc4ccccc4)CC3)nc(NCCNC(=O)CCCCCCC(=O)NO)nc2c1 [Compound 13, N1-(2-((4-((1-benzylpiperidin-4-yl)amino)-7-methoxyquinazolin-2-yl)amino)ethyl)-N8-hydroxyoctanediamide]			37.8 ± 2.8	> 100			89.3 ± 1.23	27.8 ± 0.59	79.4 ± 2.72	15.3 ± 0.79
COc1ccc2c(NC3CCN(Cc4ccccc4)CC3)nc(NCCNC(=O)CCCCCC(=O)NO)nc2c1 [Compound 14, N1-(2-((4-((1-benzylpiperidin-4-yl)amino)-7-methoxyquinazolin-2-yl)amino)ethyl)-N7-hydroxyheptanediamide]			7.14 ± 1.62	> 100			10 ± 1.66	5.74 ± 1.23	37.4 ± 2.2	13.8 ± 1.22
COc1ccc2c(NC3CCN(C)CC3)nc(NCCNC(=O)CCCCC(=O)NO)nc2c1 [Compound 15a, N1-hydroxy-N6-(2-((7-methoxy-4-((1-methylpiperidin-4-yl)amino)quinazolin-2-yl)amino)ethyl)adipamide]	77.6	> 100	47 ± 3.33	> 100	> 100	> 100				
COc1ccc2c(NC3CCN(Cc4ccccc4)CC3)nc(NCCNC(=O)CCCC(=O)NO)nc2c1 [Compound 16, N1-(2-((4-((1-benzylpiperidin-4-yl)amino)-7-methoxyquinazolin-2-yl)amino)ethyl)-N5-hydroxyglutaramide]	38.1	> 100	90.3 ± 3.75	> 100	57.3	> 100				
